One series has as its target T1, CYP2C9 (Homo sapiens, UniProt P11712).
T1 construct: from tissue
In words: Cocktail drug-drug interaction study: tolbutamide pharmacokinetics as probe of CYP2C9 activity. The series is classed as in vivo. Conditions: co-administration of 500 mg Compound A with tolbutamide 500 mg. From the text: 24 healthy male subjects aged between 20 and 43 years received the following dosing regimens in random order: • 1.
The three treatments were separated by a wash-out period of 7 to 21 days.

In a further series the target is thrombin (Homo sapiens, UniProt P00734). Conditions: free amidine metabolite of Compound A; cited from earlier work.

T1 sequence (P11712 whole entry): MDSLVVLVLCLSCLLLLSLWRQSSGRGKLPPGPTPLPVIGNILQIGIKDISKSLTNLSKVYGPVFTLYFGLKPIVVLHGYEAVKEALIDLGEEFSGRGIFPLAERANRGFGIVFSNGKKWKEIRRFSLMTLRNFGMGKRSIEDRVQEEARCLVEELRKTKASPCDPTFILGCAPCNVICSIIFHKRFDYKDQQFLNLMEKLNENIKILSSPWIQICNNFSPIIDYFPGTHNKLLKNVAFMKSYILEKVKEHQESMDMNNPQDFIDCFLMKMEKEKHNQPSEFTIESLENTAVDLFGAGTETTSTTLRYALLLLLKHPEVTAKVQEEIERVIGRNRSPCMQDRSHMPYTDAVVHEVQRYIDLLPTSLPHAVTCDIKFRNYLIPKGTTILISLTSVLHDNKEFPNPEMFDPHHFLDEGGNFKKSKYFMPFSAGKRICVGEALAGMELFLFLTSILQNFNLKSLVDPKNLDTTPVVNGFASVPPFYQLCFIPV

With `CO/N=C(\N)c1ccc(CNC(=O)[C@@H]2CCN2C(=O)[C@H](O)c2cc(Cl)cc(OC(F)F)c2)cc1` [Compound A, Ph(3-Cl)(5-OCHF2)—(R)CH(OH)C(O)—(S)Aze-Pab(OMe)], the “effect on CYP2C9 activity (influence on the pharmacokinetics of tolbutamide)” value on CYP2C9 is reported as “no effect”.
On to `N=C(N)c1ccc(CNC(=O)[C@@H]2CCN2C(=O)[C@H](O)c2cc(Cl)cc(OC(F)F)c2)cc1` [Compound C, Ph(3-Cl)(5-OCHF2)—(R)CH(OH)C(O)—(S)Aze-Pab], for which the inhibition of thrombin entry on thrombin is listed as “has been found to inhibit thrombin”.

Source of the values: patent US20090061000A1, “PHARMACEUTICAL FORMULATION USE 030” (AstraZeneca AB, priority 2007, published 2009).
